According to paper PMC8510601, “Discovery of benzamide-hydroxypyridinone hybrids as potent multi-targeting agents for the treatment of Alzheimer's disease” (Journal of Enzyme Inhibition and Medicinal Chemistry, 2021):

Key:
[1] = Iron-chelating activity test: affinity constants for Fe3+ and pFe3+; conditions: for Log β2 / Log β3: KCl (0.1 M): DMSO = 3:2 (v/v); for Log β1: KCl (0.1 M): DMSO = 9:1 (v/v); for pFe^3+: pH 7.4, [Fe3+]total = 10^−6 M, [ligand]total = 10^−5 M, calculated from pKa and log β measured in KCl/DMSO
MAO-B = target: T1, MAO-B (Homo sapiens, UniProt P27338); assay: Human MAO-B inhibition assay; type: biochemical; conditions: for inhibition at 0.1 µM: 100 nM, read-out: Inhibitory rate ± SEM (%, 100 nM); for inhibition at 1 µM: read-out: Inhibitory rate ± SEM (%, 1 μM); for IC50: ± SEM, read-out: IC50 against MAO-B
T1 sequence (P27338 1-520): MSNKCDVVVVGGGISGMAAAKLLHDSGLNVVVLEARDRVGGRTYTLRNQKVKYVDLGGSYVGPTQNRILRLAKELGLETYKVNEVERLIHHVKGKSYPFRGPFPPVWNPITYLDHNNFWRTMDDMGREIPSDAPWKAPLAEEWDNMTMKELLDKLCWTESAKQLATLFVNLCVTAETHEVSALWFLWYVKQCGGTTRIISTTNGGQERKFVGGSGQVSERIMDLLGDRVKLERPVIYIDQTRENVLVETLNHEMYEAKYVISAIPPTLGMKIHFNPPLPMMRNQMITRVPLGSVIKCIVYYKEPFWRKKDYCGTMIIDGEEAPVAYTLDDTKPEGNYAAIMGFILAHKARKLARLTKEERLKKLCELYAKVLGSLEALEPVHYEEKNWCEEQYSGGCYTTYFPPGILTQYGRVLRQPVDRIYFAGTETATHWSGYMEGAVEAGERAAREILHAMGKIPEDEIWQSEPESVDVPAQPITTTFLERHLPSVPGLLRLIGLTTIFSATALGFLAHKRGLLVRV

[2] = pKa determination by spectrophotometric titration; conditions: 0.1 M KCl aqueous solution, pH range 2.0–10.5, 25 °C

| Structure (SMILES) | melting point [°C] | inhibition at 0.1 µM (MAO-B) [%] | inhibition at 1 µM (MAO-B) [%] | IC50 (MAO-B) [nM] | pKa ([2]; KCl (0.1 M)) | pKa ([2]; pKa2, KCl (0.1 M)) | Log β2 [1] | Log β3 [1] | Log β1 [1] | pFe^3+ [1] |
| --- | --- | --- | --- | --- | --- | --- | --- | --- | --- | --- |
| Cc1c(O)c(=O)ccn1CCNC(=O)c1ccc(OCc2cc(F)ccc2F)cc1 [Compound 8p] | 236 to 238 | 41.4 ± 2.45 | 65.1 ± 1.47 | 175 ± 6.73 | 3.27 | 9.82 | 26.58 | 35.44 | 14.47 | 18.74 |
| COc1cccc(C(=O)NCCn2ccc(=O)c(O)c2C)c1 [Compound 8c] | 218 to 220 | 31.9 ± 0.85 | 59.97 ± 0.14 | – | 3.37 | 9.83 | 26.17 | 35.55 | 14.68 | 18.80 |
| COc1ccccc1C(=O)NCCn1ccc(=O)c(O)c1C [Compound 8b] | – | 38.8 ± 1.16 | 59.9 ± 1.57 | – | 3.41 | 9.88 | 26.20 | 35.45 | 14.64 | 18.56 |
| Cc1c(O)c(=O)ccn1CCNC(=O)c1cccnc1 [Compound 11b] | 266 to 268 | 34.1 ± 1.58 | 60.8 ± 1.99 | 248 ± 9.56 | 3.09 | 9.79 | 25.68 | 34.75 | 14.40 | 18.13 |
| Cc1c(O)c(=O)ccn1CCNC(=O)c1ccc(OCc2ccc(Cl)cc2)cc1 [Compound 8o] | – | 48.5 ± 4.37 | 63.6 ± 4.14 | 139 ± 1.74 | 3.33 | 9.63 | 26.09 | 34.55 | 14.43 | 18.44 |

Second part, led by results:

| melting point [°C] | inhibition at 0.1 µM (MAO-B) [%] | inhibition at 1 µM (MAO-B) [%] | IC50 (MAO-B) [nM] | pKa ([2]; KCl (0.1 M)) | pKa ([2]; pKa2, KCl (0.1 M)) | Structure (SMILES) | Log β2 [1] | Log β3 [1] | Log β1 [1] | pFe^3+ [1] |
| --- | --- | --- | --- | --- | --- | --- | --- | --- | --- | --- |
| 211 to 213 | > 50 | 77.65 ± 0.6 | 79 ± 0.3 | 3.43 | 9.81 | Cc1c(O)c(=O)ccn1CCNC(=O)c1ccccc1 [Compound 8a] | 26.35 | 35.83 | 14.93 | 19.14 |
| 214 to 243 | > 50 | 53.41 ± 0.31 | 89.1 ± 10.1 | 3.41 | 9.84 | CCCOc1ccc(C(=O)NCCn2ccc(=O)c(O)c2C)cc1 [Compound 8i] | 25.98 | 35.18 | 14.56 | 18.40 |
| – | 49.7 ± 4.22 | 63.9 ± 0.67 | 93.8 ± 6.48 | 3.27 | 9.82 | Cc1c(O)c(=O)ccn1CCNC(=O)c1ccc(OCc2cc(F)cc(F)c2)cc1 [Compound 8q] | 26.63 | 35.73 | 14.61 | 19.01 |
| 247 to 249 | 41.5 ± 1.94 | 62.92 ± 0.51 | 128 ± 3.96 | 3.33 | 9.58 | Cc1c(O)c(=O)ccn1CCNC(=O)c1ccc(OCc2ccc(C(C)C)cc2)cc1 [Compound 8u] | 25.58 | 35.36 | 14.67 | 19.35 |
| – | > 50 | > 80 | 96.4 ± 6.78 | 3.51 | 9.74 | Cc1c(O)c(=O)ccn1CCNC(=O)c1ccc(OCc2cccc(F)c2)cc1 [Compound 8l] | 26.72 | 35.87 | 14.76 | 19.39 |
| – | 49.3 ± 2.58 | 71.3 ± 1.02 | 122.3 ± 0.21 | 3.31 | 9.86 | Cc1cccc(COc2ccc(C(=O)NCCn3ccc(=O)c(O)c3C)cc2)c1 [Compound 8s] | 26.67 | 35.67 | 14.67 | 18.85 |
